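Assay format: 96-well plates, 48-hour exposure. Here, GI50 denotes the concentration required for 50% inhibition of growth. TGI denotes the concentration required for complete inhibition of growth.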
Key:
Test in all cases: inhibition of tumour cell growth, NCI panel, 48 h
ACHN renal = test system: ACHN renal
HT29 colon = test system: HT29 colon
NCI-H522 lung = test system: NCI-H522 lung
SF-539 CNS = test system: SF-539 CNS
SN12C renal = test system: SN12C renal
UACC-62 melanoma = test system: UACC-62 melanoma
UO-31 renal = test system: UO-31 renal
HL-60(TB) leukemia = test system: HL-60(TB) leukemia
T-47D breast = test system: T-47D breast
BT-549 breast = test system: BT-549 breast

Row | Compound | TGI (ACHN renal) [µM] | TGI (HT29 colon) [µM] | TGI (NCI-H522 lung) [µM] | TGI (SF-539 CNS) [µM] | TGI (SN12C renal) [µM] | TGI (UACC-62 melanoma) [µM] | TGI (UO-31 renal) [µM] | TGI (HL-60(TB) leukemia) [µM] | TGI (T-47D breast) [µM] | GI50 (ACHN renal) [µM] | GI50 (BT-549 breast) [µM] | TGI (BT-549 breast) [µM] | GI50 (HL-60(TB) leukemia) [µM] | GI50 (UACC-62 melanoma) [µM] | GI50 (HT29 colon) [µM] | GI50 (NCI-H522 lung) [µM] | GI50 (SF-539 CNS) [µM] | GI50 (SN12C renal) [µM] | GI50 (UO-31 renal) [µM]
1 | COc1ccc2oc3c(OC)c(OC)c(OC)cc3c(=O)c2c1 | > 100 | > 100 | > 100 | > 100 | > 100 | > 100 | > 100 | – | – | – | – | – | – | – | – | – | – | – | –
2 | COCCOc1cc(C)cc(/C=C(C)/C=C/C2=C(C)CCCC2(C)C)n1 | > 100 | > 100 | > 100 | > 100 | > 100 | > 100 | > 100 | – | – | – | – | – | – | – | – | – | – | – | –
3 | NC1c2ccccc2Nc2ccccc21 | 24.6 | 20.4 | 5.2 | – | 19 | 15.5 | 13.4 | 16.3 | – | – | – | – | – | – | – | – | – | – | –
4 | N#Cc1ccccc1NC(=O)C(=O)C1NC(=S)NC1=O (configuration not stated) | > 100 | > 100 | – | > 100 | > 100 | > 100 | – | > 100 | – | – | – | – | – | – | – | – | – | – | –
5 | COc1cc(/C=C/c2ccc(O)c(OC)c2)cc(OC)c1 | 80 | 85.8 | – | – | – | – | 66.2 | 78.1 | > 100 | – | – | – | – | – | – | – | – | – | –
6 | CC1OC(=O)C(O)=C1O (configuration not stated) | > 100 | > 100 | > 100 | > 100 | > 100 | > 100 | > 100 | – | – | – | – | – | – | – | – | – | – | – | –
7 | CC1=C(C(=O)Nc2ccccc2)C(c2ccccc2Cl)C(C(=O)Nc2ccccc2)=C(C)N1 | 94.1 | 37.9 | 35.4 | 37.6 | 33 | 27.2 | 84.4 | 31.8 | – | – | – | – | – | – | – | – | – | – | –
8 | CC(C)c1cccc(C(C)C)c1N1C(=O)C(=O)C(c2nc3ccccc3o2)C(=O)C1=O | > 100 | > 100 | 50.6 | > 100 | > 100 | > 100 | > 100 | > 100 | – | – | – | – | – | – | – | – | – | – | –
9 | Cc1ccc2nc(NC(=O)C(=O)C(C#N)c3ccc(Cl)cc3)sc2c1 (configuration not stated) | > 50 | > 50 | – | > 50 | > 50 | > 50 | > 50 | – | – | – | – | – | – | – | – | – | – | – | –
10 | C1CCCCc2nc3c(nc2CCC1)c1nc2c(nc1c1nc4c(nc31)CCCCCCCC4)CCCCCCCC2 | > 100 | > 100 | – | > 100 | > 100 | > 100 | > 100 | > 100 | – | – | – | – | – | – | – | – | – | – | –
11 | Clc1ccc(-c2c3ccc(=[N+]4CCCCC4)cc-3oc3cc(N4CCCCC4)ccc23)cc1 | 0.229 | – | – | – | – | 0.452 | – | 0.471 | – | 0.0909 | 0.154 | 0.31 | 0.0942 | 0.18 | – | – | – | – | –
12 | COc1ccc(C2=Nc3ccccc3SC(C)C2)cc1OC (configuration not stated) | 58.1 | 37.2 | 32.1 | – | 42 | 32.4 | 32.4 | 59.6 | – | – | – | – | – | – | – | – | – | – | –
13 | Cc1ccc(N=C[N-]c2ccc(C)cc2)cc1.Cc1ccc(N=C[N-]c2ccc(C)cc2)cc1.O=C([O-])C(F)(F)F.O=C([O-])C(F)(F)F.[OH3+].[OH3+].[Rh+2].[Rh+2] | > 100 | 42.1 | 53.2 | 78.7 | > 100 | 87.9 | > 100 | – | – | 44.7 | – | – | – | 32.4 | 19.4 | 23.4 | 26.6 | 34.9 | > 100
14 | Cc1ccc(NC(=O)C(=O)CC(=O)c2c(C)n([O-])c3ccccc3[n+]2=O)cc1C | > 100 | > 100 | > 100 | > 100 | > 100 | > 100 | > 100 | > 100 | – | – | – | – | – | – | – | – | – | – | –
15 | CCC(C)CC(C)CC(C)/C=C(\C)C1=C(C)CC(C)(O)O1 (configuration not stated) | > 100 | > 100 | > 100 | > 100 | > 100 | > 100 | > 100 | 79 | – | – | – | – | – | – | – | – | – | – | –
16 | COC1=CC(C2c3cc4c(cc3[C@@H](Nc3ccc(F)cc3)C3COC(=O)[C@H]23)OCO4)=CC(=O)C1=O (some centres not stated) | 23.4 | > 68.3 | 14.9 | 20.3 | 24.8 | 20.7 | 30.2 | > 21.4 | – | – | – | – | – | – | – | – | – | – | –
17 | C/C(CN1C(=O)c2ccccc2C1=O)=N\NS(=O)(=O)c1cccc(C(=O)O)c1 | > 100 | > 100 | > 100 | > 100 | > 100 | > 100 | > 100 | > 100 | – | – | – | – | – | – | – | – | – | – | –

Row | Compound | TGI (ACHN renal) [µM] | TGI (HT29 colon) [µM] | TGI (NCI-H522 lung) [µM] | TGI (SF-539 CNS) [µM] | TGI (SN12C renal) [µM] | TGI (UACC-62 melanoma) [µM] | TGI (UO-31 renal) [µM] | TGI (HL-60(TB) leukemia) [µM] | TGI (T-47D breast) [µM] | GI50 (ACHN renal) [µM] | GI50 (BT-549 breast) [µM] | TGI (BT-549 breast) [µM] | GI50 (HL-60(TB) leukemia) [µM] | GI50 (UACC-62 melanoma) [µM] | GI50 (HT29 colon) [µM] | GI50 (NCI-H522 lung) [µM] | GI50 (SF-539 CNS) [µM] | GI50 (SN12C renal) [µM] | GI50 (UO-31 renal) [µM]
18 | O=C(O)CCNS(=O)(=O)c1ccc2ccccc2c1 | > 100 | > 100 | > 100 | > 100 | > 100 | > 100 | > 100 | > 100 | – | – | – | – | – | – | – | – | – | – | –
19 | ClCc1ccccc1Cn1cnc2ncnc(Cl)c21 | 4.27 | > 100 | 7.64 | 4.98 | 8.5 | 5.12 | 10.7 | – | – | 2 | 2.45 | 6.09 | – | 1.88 | 3.93 | 2.83 | 2.35 | 2.96 | 3.22
20 | COc1ccc(C(=O)c2cc(C)c(OC)c(C)c2)c(OC)c1NC(C)=O | > 100 | > 100 | – | 0.848 | > 100 | > 100 | > 63.1 | 1.37 | – | 0.0944 | 0.258 | > 100 | 0.309 | 0.333 | 0.468 | 0.157 | 0.214 | 0.448 | 0.167
21 | CN(C)CC1CC/C(=C\c2ccc3c(c2)OCO3)C1=O (configuration not stated) | 28.5 | 59 | 8.51 | 31 | 30.3 | 30.4 | 24.8 | 11 | – | – | – | 24.9 | – | – | – | – | – | – | –
22 | CCC[CH2][Sn]([CH2]CCC)([S]C#N)[S]C#N | 2.48 | 8.51 | 0.224 | 2.55 | 2.52 | 2 | 2.98 | 1.45 | – | 1.24 | – | – | 0.389 | 0.58 | 2.77 | 0.0451 | 1.24 | 1.18 | 1.61
23 | C#CC1=CC(=O)C(OC)=CC1=O | 11.3 | 62 | 4.2 | > 100 | 31.7 | 29.2 | 14.3 | 13.4 | 87.5 | – | – | – | – | – | – | – | – | – | –
24 | CC(C)c1cc(C(C)C)c(S(=O)(=O)N=[N+]=[N-])c(C(C)C)c1 | > 100 | > 100 | > 100 | > 100 | > 100 | > 100 | > 100 | > 100 | – | – | – | – | – | – | – | – | – | – | –
25 | Cc1ccc(C)c(N2C(=O)C(=O)C(c3nc4ccccc4o3)C(=O)C2=O)c1 | > 100 | > 100 | – | > 100 | > 100 | > 100 | > 100 | 61.3 | – | – | – | – | – | – | – | – | – | – | –
26 | CC1=C(SC#N)S(=O)(=O)N(c2ccccc2)C(C)=C1SC#N | > 100 | > 100 | > 100 | > 100 | > 100 | > 100 | > 100 | > 100 | – | – | – | – | – | – | – | – | – | – | –
27 | O=C(C(=O)n1ncc(Cl)c(Cl)c1=O)n1ncc(Cl)c(Cl)c1=O | 32.9 | 34 | 28.1 | > 68.8 | > 65.8 | 32.2 | > 100 | 22.6 | – | – | – | – | – | – | – | – | – | – | –
28 | O=C(NNc1ccc(Cl)cc1)C1CCC(CNS(=O)(=O)c2ccccc2Cl)CC1 (configuration not stated) | 66.1 | – | 75.1 | 45.1 | 50.9 | 9.64 | > 100 | > 100 | – | 16.8 | 21.6 | 52.6 | 4.25 | 2.81 | – | 12.8 | 17.4 | 14.7 | 56.2
29 | COc1ccc2nc(C(=O)c3ccccc3)c(C)cc2c1 | > 100 | 11 | 5.75 | 13.8 | > 65.8 | > 100 | > 57.7 | > 100 | – | – | – | – | – | – | – | – | – | – | –
30 | COc1ccccc1NC(=O)C1=C(C)NC(C)=C(C(=O)Nc2ccccc2OC)C1/C=C/c1ccccc1 | > 100 | > 100 | – | > 100 | > 100 | > 100 | > 100 | > 100 | – | – | – | – | – | – | – | – | – | – | –
31 | N#CC(C(=O)CCCC(=O)Nc1ccc(Cl)cc1Cl)c1ccccc1 (configuration not stated) | > 100 | > 100 | – | > 100 | > 100 | > 100 | > 100 | > 100 | – | – | – | – | – | – | – | – | – | – | –
32 | CCOC(=O)c1cc(-c2ccc(-c3cc(C(=O)OCC)c(C#N)c(N)c3C#N)cc2)c(C#N)c(N)c1C#N | > 100 | > 100 | > 100 | > 100 | > 100 | > 100 | > 100 | > 100 | – | – | – | – | – | – | – | – | – | – | –
33 | CCOC(=O)/C(=C/c1cccc(Cl)c1)N(CC)CC | > 100 | > 100 | 96.2 | > 100 | > 100 | > 100 | > 100 | > 100 | – | – | – | – | – | – | – | – | – | – | –
34 | Cc1c(C(=O)O)n(C)c(=O)n(C)c1=O | > 100 | > 100 | > 100 | > 100 | > 100 | > 100 | > 100 | > 100 | – | – | – | – | – | – | – | – | – | – | –

Reference: PubChem BioAssay (NCI)
